Test results taken from patent US9328130B2, “Method of treating organism by biologically active compounds specifically delivered into mitochondria, pharmaceutical composition required for the use of the method and a compound applicable for this purpose” (MITOTECH S.A., priority 2005, dated 2016).

Assays:
[1] = Accumulation of MitoQ in tissues when fed to animals (prior art); assay type: in vivo; conditions: feeding to animals
Method: It should also be noted that despite some promising observations concerning the MitoQ action, there are several results and calculations that cast doubt on the possibility of practical application of this compound. For example, it was shown in experiments with cell culture that MitoQ provides its antioxidant and anti-apoptotic action at concentration about 1 μM in the medium. It means that MitoQ concentrations inside the mitochondria should be 1 mM provided that membrane potential is about 180 mV. On the other hand, it was shown by Smith R A, Porteous C M, Gane A M, Murphy M P, Proc Natl Acad Sci USA, 2003, 100(9):5407-12 when feeding MitoQ to animals, the accumulation of MitoQ in the most oxidative stress sensitive tissues (heart and brain) amounts up to 100 pmoles/gram, which corresponds to the MitoQ concentration inside heart mitochondria equal to 100 nM. This is more than 1000 times lower than the concentration shown to be efficient in the cell culture experiments. Formally, the concentration can be raised by the increase of amounts of MitoQ fed to animals, but this is, in fact, not possible due to the toxicity of the compound.

[2] = test system: Hela cells
[3] = test system: cell culture; conditions: cited from earlier work
[4] = feeding to animals; cited from earlier work
[5] = test system: cells in culture; conditions: cited from earlier work
[6] = test system: Yarrowia lipolytica; experiment: Protection of yeast cells from death caused by hydrogen peroxide; assay type: cell-based; conditions: FIG. 14; α-tocopherol 25 μM
[7] = test system: OXYS rats; experiment: Cataract and macular dystrophy in senescence-accelerated OXYS rats; assay type: in vivo, rat; conditions: for 2nd stage of cataract / 2nd stage of macular degeneration / changes in the macular area of the retina: OXYS rats age 3 months after oral course; for eyes with lens changes: OXYS rats age 3 months after oral course from 1.5 to 3 months
Method: The animals were housed in cages (45*35*35 cm) and kept under standard laboratory conditions (at 22±1° C., 60% relative humidity, and natural light), provided with a standard rodent diet (PK-120-1, Ltd. ‘Laboratorsnab’, Russia), and given water ad libitum. At the age of 1.5 months after preliminary pupil dilation with 1% tropicamide ophthalmic the rats were conducted through ophthalmoscopic examination using direct ophthalmoscop “Betta”, Germany. […] We use Vitamin E for a comparison with test antioxidants. Animals received the compounds on a small piece of dried bread before a regular meal, and the control group of animals received the same piece of bread without any compound. After completing the course of antioxidants the animals were retested with ophthalmoscope. To avoid human factor in the evaluation of compound effects the researcher who conducted the ophthalmoscopic examination was not told which of the animals received antioxidants. The lens state was evaluated according to the classification system accepted in clinical practice with grades ranging from 0 to 3: score 0—the lens is clear; score 1—spotted weak cloudiness; score 2—multiple spots of cloudiness and score 3—intense cloudiness of the lens core and nucleus.

[8] = test system: Hela cells; experiment: Transmission of apoptotic signal between inducer and recipient slides; assay type: cell-based, human; conditions: 2500 E/ml added to medium for joint incubation
Method: HeLa cells were used in these experiments. Cells grown on a glass slide were treated with different apoptosis-inducing agents (tumor necrosis factor (TNF), staurosporine, H2O2) for 3 h. Then the glass slide with cells (inducer) was washed to remove these reagents and placed into Petri plate to come into contact with glass slide (recipient) with cells grown in the absence of any apoptosis-inducing agent. After 16-18 h of subsequent growth and staining the cells with Hoechst 33342 as described above, apoptosis at both glass slides was analyzed.
Thus the main mediator of apoptosis signal was H2O2.

## COC1=C(OC)C(=O)C(CCCCCCCCCC[P+](c2ccccc2)(c2ccccc2)c2ccccc2)=C(C)C1=O [MitoQ]
[1]
  corresponding concentration inside heart mitochondria: 100 nM
[2]; 100 μM hydrogen peroxide
  LD50 in the presence of hydrogen peroxide: 4 µM
[2]; 2 h of incubation, no hydrogen peroxide
  LD50 (concentrations at which 50% cells die): 7 µM
[3]
  concentration in the medium giving antioxidant and anti-apoptotic action: about 1 μM
[4]
  accumulation in heart and brain: up to 100 pmoles/gram

## Cc1c(C)c2c(c(C)c1O)CCC(C)(CC[P+](c1ccccc1)(c1ccccc1)c1ccccc1)O2 (stereo not drawn) [MitoVitE]
[5]
  concentration with no toxic effect on cells in culture: 10 µM
[5]; effect retained in the presence of uncoupler FCCP
  prevention of apoptosis in cultured cells: able to prevent apoptosis in cultured cells

## C[C@@H]1C[C@@H]([C@H](O)CC2CC(=O)NC(=O)C2)C(=O)[C@@H](C)C1 [cycloheximide D, reference compound]
[6]
  effect on survival compared among protectants: very similar

## CC(=O)Oc1c(C)c(C)c2c(c1C)CCC(C)(CCC[C@H](C)CCC[C@H](C)CCCC(C)C)O2 (stereo partly drawn) [vitamin E, alfa-tocopherol acetate]
[7]
  2nd stage of cataract: 12%
  2nd stage of macular degeneration: 8%
  changes in the macular area of the retina: 54%
  eyes with lens changes: 58%

## Cc1c(C)c2c(c(C)c1O)CC[C@@](C)(CCC[C@H](C)CCC[C@H](C)CCCC(C)C)O2 [tocopherol, α-tocopherol, reference compound]
[6]
  effect on survival compared among protectants: very similar

## [Br-].[K+] [KBr]
[7]
  2nd stage of cataract: 57%
  2nd stage of macular degeneration: 13%
  changes in the macular area of the retina: 87%
  eyes with lens changes: 93%

B1: catalase: catalase (2500 E/ml) added into the medium for joint incubation (protein, UniProt P00432 2-527, looked up)
Catalase: ADNRDPASDQMKHWKEQRAAQKPDVLTTGGGNPVGDKLNSLTVGPRGPLLVQDVVFTDEMAHFDRERIPERVVHAKGAGAFGYFEVTHDITRYSKAKVFEHIGKRTPIAVRFSTVAGESGSADTVRDPRGFAVKFYTEDGNWDLVGNNTPIFFIRDALLFPSFIHSQKRNPQTHLKDPDMVWDFWSLRPESLHQVSFLFSDRGIPDGHRHMNGYGSHTFKLVNANGEAVYCKFHYKTDQGIKNLSVEDAARLAHEDPDYGLRDLFNAIATGNYPSWTLYIQVMTFSEAEIFPFNPFDLTKVWPHGDYPLIPVGKLVLNRNPVNYFAEVEQLAFDPSNMPPGIEPSPDKMLQGRLFAYPDTHRHRLGPNYLQIPVNCPYRARVANYQRDGPMCMMDNQGGAPNYYPNSFSAPEHQPSALEHRTHFSGDVQRFNSANDDNVTQVRTFYLKVLNEEQRKRLCENIAGHLKDAQLFIQKKAVKNFSDVHPEYGSRIQALLDKYNEEKPKNAVHTYVQHGSHLSAREKANL
[8]
  apoptosis of recipient cells: prevented apoptosis of recipient cells
